Laboratory results reported in patent US11547681B2, “N-acylethanolamide derivatives and uses thereof” (ELIEM THERAPEUTICS, INC., priority 2016, dated 2023).

Columns and labels:
in vitro [1] = conditions: both, human; for Concentration (μM) of analyte PEA, 0 min / Concentration (μM) of analyte PEA, 10 min / Concentration (μM) of analyte PEA, 20 min / Concentration (μM) of analyte PEA, 30 min / Concentration (μM) of analyte PEA, 60 min / % Remaining of Initial (n = 1), 0 min / % Remaining of Initial (n = 1), 10 min / % Remaining of Initial (n = 1), 20 min / % Remaining of Initial (n = 1), 30 min / % Remaining of Initial (n = 1), 60 min: 1 μM; for % Remaining of Initial (n = 1), 0 min: s9, 0 h; for % Remaining of Initial (n = 1), 10 min: s9, 10 min; for % Remaining of Initial (n = 1), 20 min: s9, 20 min; for % Remaining of Initial (n = 1), 30 min: s9, 0.5 h; for % Remaining of Initial (n = 1), 60 min: s9, 1 h; for microsomal CLint at 1 μM: s9, CLint (mL/min/mg protein); for half-life at 1 μM: s9, Half-life (min)
Method: (§1) The reaction mixture, minus cofactors, was prepared as described below. The test article was added into the reaction mixture at a final concentration of 1 μM. […] An aliquot of the reaction mixture (without cofactor cocktail) was equilibrated in a shaking water bath at 37° C. for 3 minutes. The reaction was initiated by the addition of cofactor cocktail, and the mixture was incubated in a shaking water bath at 37° C. Aliquots (100 μL) were withdrawn at 0, 10, 20, 30, and 60 minutes. All samples were immediately combined with 400 uL of icecold 50/50 acetonitrile/H2O containing 0.1% formic acid and internal standard to terminate the reaction. The samples were then mixed and centrifuged to precipitate proteins. Calibration standards were prepared in matched matrix. All samples and standards were assayed by LC-MS/MS using electrospray ionization for both the dosed prodrug I-9 and the expected drug (PEA). Analytical conditions are outlined in Appendix 4-1. The test article concentration at each time point was compared to the test article concentration at time 0 to determine the percent remaining at each time point. Half-lives were calculated using GraphPad software, fitting to single-phase exponential decay equation.
(§2) Reaction mixture, minus cofactors, was prepared as described below. Test article was added into the reaction mixture at a final concentration of 1 μM. […] An aliquot of the reaction mixture (without cofactor cocktail) was equilibrated in a shaking water bath at 37° C. for 3 minutes. The reaction was initiated by the addition of cofactor cocktail, and the mixture was incubated in a shaking water bath at 37° C. Aliquots (100 μL) were withdrawn at 0, 10, 20, 30, and 60 minutes. Test article samples were immediately combined with 300 μL of ice-cold acetonitrile containing 1% formic acid. Control samples were immediately combined with 400 μL of ice-cold 50/50 acetonitrile (ACN)/dH2O containing 0.1% formic acid and internal standard to terminate the reaction. Samples were then mixed and centrifuged to precipitate proteins. Calibration standards were prepared in matched matrix. Samples and standards were assayed by LC-MS/MS using electrospray ionization for both the dosed prodrug and the expected drug (PEA). Analytical conditions are outlined in Appendix 8-1. Test article concentration at each time point was compared to test article concentration at time 0 to determine the percent remaining at each time point. Halflives were calculated using GraphPad software, fitting to a single-phase exponential decay equation.
as §2, with “for 5” for “for 3”, “minutes. Reaction” for “minutes. The reaction”, “and” for “and the”, “both” for “both the”, “Appendix 10-1.” for “Appendix 8-1.”
(§3) Reaction mixture, minus cofactors, was prepared as described below.

in vitro [2] = conditions: male, Sprague-Dawley, rat; for Concentration (μM) of analyte PEA, 0 min / Concentration (μM) of analyte PEA, 10 min / Concentration (μM) of analyte PEA, 20 min / Concentration (μM) of analyte PEA, 30 min / Concentration (μM) of analyte PEA, 60 min / % Remaining of Initial (n = 1), 0 min / % Remaining of Initial (n = 1), 10 min / % Remaining of Initial (n = 1), 20 min / % Remaining of Initial (n = 1), 30 min / % Remaining of Initial (n = 1), 60 min: 1 μM; for % Remaining of Initial (n = 1), 0 min: s9, 0 h; for % Remaining of Initial (n = 1), 10 min: s9, 10 min; for % Remaining of Initial (n = 1), 20 min: s9, 20 min; for % Remaining of Initial (n = 1), 30 min: s9, 0.5 h; for % Remaining of Initial (n = 1), 60 min: s9, 1 h; for microsomal CLint at 1 μM: s9, CLint (mL/min/mg protein); for half-life at 1 μM: s9, Half-life (min)
Method: as §1, §2
as §2, with “for 5” for “for 3”, “minutes. Reaction” for “minutes. The reaction”, “and” for “and the”, “both” for “both the”, “Appendix 10-1.” for “Appendix 8-1.”
as §3

For `CCCCCCCCCCCCCCCC(=O)NCCOC(=O)CCC` [Compound I-2], the “Concentration (μM) of analyte PEA, 0 min” value (in vitro [1]) was 0.011 µM, the “Concentration (μM) of analyte PEA, 10 min” value (from here on “Concentration (μM) … 10 min”) (in vitro [1]) was 0.057 µM and the “Concentration (μM) of analyte PEA, 20 min” value (shortened to “Concentration (μM) … 20 min”) (in vitro [1]) was 0.075 µM. For the same compound, the “Concentration (μM) of analyte PEA, 30 min” value (“Concentration (μM) … 30 min” below) (in vitro [1]) was 0.067 µM, the “Concentration (μM) of analyte PEA, 60 min” value (from here on “Concentration (μM) … 60 min”) (in vitro [1]) was 0.11 µM and the “% Remaining of Initial (n = 1), 0 min” value (in vitro [1]) was 100%. For the same compound, the “% Remaining of Initial (n = 1), 10 min” value (in vitro [1]) was 73%, the “% Remaining of Initial (n = 1), 20 min” value (in vitro [1]) was 41% and the “% Remaining of Initial (n = 1), 30 min” value (in vitro [1]) was 28%. For the same compound, the “% Remaining of Initial (n = 1), 60 min” value (in vitro [1]) was 9.6%, the “Concentration (μM) of analyte PEA, 0 min” value (in vitro [2]) was 0.69 µM and the “Concentration (μM) … 10 min” value (in vitro [2]) was 0.63 µM. The “Concentration (μM) … 20 min” value (in vitro [2]) was 0.60 µM, the “Concentration (μM) … 30 min” value (in vitro [2]) was 0.52 µM and the “Concentration (μM) … 60 min” value (in vitro [2]) was 0.52 µM. For the same compound, the “% Remaining of Initial (n = 1), 0 min” value (in vitro [2]) was 100%, the “% Remaining of Initial (n = 1), 10 min” value (in vitro [2]) was 35% and the “% Remaining of Initial (n = 1), 20 min” value (in vitro [2]) was less than 1.0%. The “% Remaining of Initial (n = 1), 30 min” value (in vitro [2]) was less than 1.0%, the “% Remaining of Initial (n = 1), 60 min” value (in vitro [2]) was less than 1.0% and the microsomal CLint at 1 μM (in vitro [2]) was 123 µL/min/mg. The half-life at 1 μM (in vitro [2]) was 5.6 min.

With `CCCCCCCCCCCCCCCC(=O)NCCOC(=O)CCC(=O)OCC(COC(=O)CCCCCCC)OC(=O)CCCCCCC` (stereo not shown) [Compound I-3, PEA-Succinate-Glycerol-Di-Caprylic] the “Concentration (μM) of analyte PEA, 0 min” value (in vitro [1]) was 0 µM, the “Concentration (μM) … 10 min” value (in vitro [1]) was 0.0027 µM and the “Concentration (μM) … 20 min” value (in vitro [1]) was 0.025 µM. The “Concentration (μM) … 30 min” value (in vitro [1]) was 0.034 µM, the “Concentration (μM) … 60 min” value (in vitro [1]) was 0.048 µM and the “% Remaining of Initial (n = 1), 0 min” value (in vitro [1]) was 100%. For the same compound, the “% Remaining of Initial (n = 1), 10 min” value (in vitro [1]) was 76%, the “% Remaining of Initial (n = 1), 20 min” value (in vitro [1]) was 86% and the “% Remaining of Initial (n = 1), 30 min” value (in vitro [1]) was 83%. The “% Remaining of Initial (n = 1), 60 min” value (in vitro [1]) was 60%, the microsomal CLint at 1 μM (in vitro [1]) was less than 11.6 µL/min/mg and the half-life at 1 μM (in vitro [1]) was greater than 60 min. For the same compound, the “Concentration (μM) of analyte PEA, 0 min” value (in vitro [2]) was 0 µM, the “Concentration (μM) … 10 min” value (in vitro [2]) was 0.024 µM and the “Concentration (μM) … 20 min” value (in vitro [2]) was 0.037 µM. For the same compound, the “Concentration (μM) … 30 min” value (in vitro [2]) was 0.047 µM, the “Concentration (μM) … 60 min” value (in vitro [2]) was 0.073 µM and the “% Remaining of Initial (n = 1), 0 min” value (in vitro [2]) was 100%. For the same compound, the “% Remaining of Initial (n = 1), 10 min” value (in vitro [2]) was 53%, the “% Remaining of Initial (n = 1), 20 min” value (in vitro [2]) was 46% and the “% Remaining of Initial (n = 1), 30 min” value (in vitro [2]) was 42%. For the same compound, the “% Remaining of Initial (n = 1), 60 min” value (in vitro [2]) was 31%, the microsomal CLint at 1 μM (in vitro [2]) was 26.8 µL/min/mg and the half-life at 1 μM (in vitro [2]) was 26 min.

In the case of `CC/C=C\C/C=C\C/C=C\C/C=C\C/C=C\CCCC(=O)OCCNC(=O)CCCCCCCCCCCCCCC` [Compound I-5], the “Concentration (μM) of analyte PEA, 0 min” value (in vitro [1]) is reported as 0 µM, the “Concentration (μM) … 10 min” value (in vitro [1]) is reported as 0.050 µM and the “Concentration (μM) … 20 min” value (in vitro [1]) is reported as 0.063 µM. For the same compound, the “Concentration (μM) … 30 min” value (in vitro [1]) was 0.074 µM, the “Concentration (μM) … 60 min” value (in vitro [1]) was 0.10 µM and the “% Remaining of Initial (n = 1), 0 min” value (in vitro [1]) was 100%. The “% Remaining of Initial (n = 1), 10 min” value (in vitro [1]) was 82%, the “% Remaining of Initial (n = 1), 20 min” value (in vitro [1]) was 49% and the “% Remaining of Initial (n = 1), 30 min” value (in vitro [1]) was 38%. The “% Remaining of Initial (n = 1), 60 min” value (in vitro [1]) was 45%, the microsomal CLint at 1 μM (in vitro [1]) was 21.6 µL/min/mg and the half-life at 1 μM (in vitro [1]) was 32 min. The “Concentration (μM) of analyte PEA, 0 min” value (in vitro [2]) was 0.029 µM, the “Concentration (μM) … 10 min” value (in vitro [2]) was 0.062 µM and the “Concentration (μM) … 20 min” value (in vitro [2]) was 0.099 µM. The “Concentration (μM) … 30 min” value (in vitro [2]) was 0.11 µM, the “Concentration (μM) … 60 min” value (in vitro [2]) was 0.18 µM and the “% Remaining of Initial (n = 1), 0 min” value (in vitro [2]) was 100%. For the same compound, the “% Remaining of Initial (n = 1), 10 min” value (in vitro [2]) was 57%, the “% Remaining of Initial (n = 1), 20 min” value (in vitro [2]) was 48% and the “% Remaining of Initial (n = 1), 30 min” value (in vitro [2]) was 46%. For the same compound, the “% Remaining of Initial (n = 1), 60 min” value (in vitro [2]) was 44%, the microsomal CLint at 1 μM (in vitro [2]) was 18.2 µL/min/mg and the half-life at 1 μM (in vitro [2]) was 38 min.
